Assay [1] concerns mixed cultures of human oligodendrocytes. The experiment in a line: Human oligodendrocyte differentiation assay (O4 immunopositive cell count). Type of assay: cell-based. The following applies: FIGS. 5 and 6. How it is done: • 1. Human neurospheres collected from E19.5-[…] human embryo cortex) are cultured for 2 weeks in progenitor media: […] Neurospheres are dissociated with 20 U/ml papain at 37° C. for 30-50 min. • 3. Cells are plated onto PDL coated dishes at density of 50,000-100,000 cell/well in progenitor media containing PDGF/FGF and incubated at 37° C. with 5-6% CO2. • 4. Media and growth factors are replenished every 48 hr. Human Culture Compound Treatment: • 1. 24 to 48 hr after plating remove the old medium and add compounds in fresh medium (with mitogen) • 2. Compound dose response evaluations are performed at 3-6 different concentrations (10 µM, 1 µM, 100 nM, 10 nM, 1 nM, and 0.1 nM) • 3. […] Sequential staining is performed on oligodendrocyte populations with increasing degrees of cellular differentiation, as determined by days in vitro without PDGF and FGF. • 2. […] Colormetric visualization of the BrdU immunoreactivity is developed with DAB and total cell numbers are assessed using the counter-stain hematoxylin. • 4. BrdU immunopositive cells are counted by two independent observers. Rat/Mouse/Human Culture Image Analysis: Fluorescent microscopy is used to quantitate the extent of oligodendrocyte differentiation after compound exposure. […] Manual Cell Counting: Four fields are randomly selected for each experimental condition and 500-600 cells are counted in each field. […]

In the next assay the target is human RXR receptor. Put plainly: Cellular human RXR receptor luciferase reporter assay. The format is cell-based. The following applies: Retinoid X receptor. The procedure: Determination of EC50 Values in the Cellular Human RXR Receptor Assay
Cell Based RXR Assay Protocol
To perform cell based assays a luciferase assay is performed in 96 well plates as follows: […]
• Aspirate medium from cells • Freeze plates at −20° C. (optional) • Thaw plates for 30 min (if necessary) • Add 50 μl Bright-Glo-Luciferase Assay Reagent (Promega, Cat. No. E2650) • Incubate for 10 min in the dark • Measure luminescence 2 sec per well (Wallac Microbeta) Data Analysis […]

As to `Cc1cc(SCc2sc(-c3ccc(C(F)(F)F)cc3)nc2C)ccc1OCC(=O)O` [Compound 1], the “number of O4 immunopositive cells” value in assay [1] is “increase”. Besides, the “Human PPAR RXR EC50” value at human RXR receptor is listed as “No increase”.
In the case of `CCCc1c(OCCCOc2ccc(OCC(=O)O)cc2)ccc(C(C)=O)c1O` [Compound 2], the “number of O4 immunopositive cells” value in assay [1] was “increase”. On human RXR receptor, the “Human PPAR RXR EC50” value is recorded as “No increase”.

The record behind these values is US20070149580A1, “USE OF PEROXISOME PROLIFERATOR ACTIVATED RECEPTOR DELTA AGONISTS FOR THE TREATMENT OF MS AND OTHER DEMYELINATING DISEASES” (AVENTIS PHARMACEUTICALS INC., priority 2004, published 2007).
